What was measured:
Assay type in all cases: physicochemical
[1] = Solubility in pharmaceutical solvents (Table 3); conditions: for calculated fluconazole concentration: value within brackets
Description: The values within brackets in Table 3 correspond to the calculated fluconazole concentrations taking into account the molecular weights of the relevant fosfluconazole prodrug and fluconazole itself.

[2] = Chemical stability in pharmaceutical solvents (weight % remaining in solution, LCMS)
Description: Table 4 provides the chemical stability data in some pharmaceutical solvents, expressed as the weight percentage (% w/w) of the final fosfluconazole derivative produced and characterized in example 1 that remained in solution after a certain period of time. The test was carried out twice, and the remaining weight % was determined by Liquid Chromatography-Mass Spectrometry (LCMS).
Table 5 provides the chemical stability data in some pharmaceutical solvents at 25° C., expressed as the weight percentage (% w/w) of the final fosfluconazole derivative produced and characterized in example 2 that remained in solution after a certain period of time. The test was carried out twice, and the remaining weight % was determined by Liquid Chromatography-Mass Spectrometry (LCMS).
Table 6 provides the chemical stability data in some pharmaceutical solvents at 25° C., expressed as the weight percentage (% w/w) of the final fosfluconazole derivative produced and characterized in example 3 that remained in solution after a certain period of time. The test was carried out twice, and the remaining weight % was determined by Liquid Chromatography-Mass Spectrometry (LCMS).
Table 7 provides the chemical stability data in some pharmaceutical solvents, expressed as the weight percentage (% w/w) of the final fosfluconazole derivative produced and characterized in example 4 that remained in solution after a certain period of time. The test was carried out twice, and the remaining weight % was determined by Liquid Chromatography-Mass Spectrometry (LCMS).
Table 8 provides the chemical stability data in some pharmaceutical solvents, expressed as the weight percentage (% w/w) of the final fosfluconazole derivative produced and characterized in example 5 that remained in solution after a certain period of time. The test was carried out twice, and the remaining weight % was determined by Liquid Chromatography-Mass Spectrometry (LCMS).
Table 9 provides the chemical stability data in some pharmaceutical solvents, expressed as the weight percentage (% w/w) of the final fosfluconazole derivative produced and characterized in example 6 that remained in solution after a certain period of time. The test was carried out twice, and the remaining weight % was determined by Liquid Chromatography-Mass Spectrometry (LCMS).
Table 10 provides the chemical stability data in some pharmaceutical solvents, expressed as the weight percentage (% w/w) of the final fosfluconazole derivative produced and characterized in example 14 that remained in solution after a certain period of time. The test was carried out twice, and the remaining weight % was determined by Liquid Chromatography-Mass Spectrometry (LCMS).

[3] = Solubility of fosfluconazole derivatives in pharmaceutical solvents (Table 2)
Description: The solubility determination method used was as follows: a suspension of 6 mg of the tested fosfluconazole derivative in 500 μl of the applicable pharmaceutical solvent was rotatively shaken for 24 hours at 800 rpm at 25° C. The saturated fosfluconazole derivative solution was filtered (0.45 μm) and 150 μl of the filtrate was diluted in dimethylsulfoxide (50 μl DMSO). This solution was assayed, each assay being carried out in three-fold, by measurement with Liquid Chromatography-Mass Spectrometry (LCMS, 1 μl and 10 μl injection). Standards were prepared by dissolving the corresponding fosfluconazole derivative in DMSO (1 mg/ml). To determine the solubility, four aliquots (0.5, 1, 2, 4 μl) of the standard solution were injected using the same LCMS conditions as for the above exemplary samples.

## 2-((2-(2,4-difluorophenyl)-1,3-di(1H-1,2,4-triazol-1-yl)propan-2-yloxy)(ethoxy)phosphoryloxy)ethyl (3S,8R,9S,10R,13S,14S,17R)-10,13,17-trimethyl-17-((R)-6-methylheptan-2-yl)-2,3,4,7,8,9,10,11,12,13,14,15,16,17-tetradecahydro-1H-cyclopenta[a]phenanthren-3-yl succinate [Example 6]
[1]; Benzylalcohol
  solubility: ≥ 226.7
  calculated fluconazole concentration: (74.8)
[1]; Benzylbenzoate
  solubility: ≥ 226.7
  calculated fluconazole concentration: (74.8)
[1]; Ethylbenzoate
  solubility: ≥ 226.7
  calculated fluconazole concentration: (74.8)
[1]; Miglyol 812
  solubility: 200.0
  calculated fluconazole concentration: (66.0)
[1]; N-methylpyrrolidone
  solubility: ≥ 226.7
  calculated fluconazole concentration: (74.8)
[1]; Sesame oil (LCT)
  solubility: 23.3
  calculated fluconazole concentration: (7.7)
[2]; H2O (pH = 2), 2 hours
  weight percentage that remained in solution: 98.4 % w/w
[2]; H2O (pH = 2), 4 hours
  weight percentage that remained in solution: 44.0 % w/w
[2]; H2O (pH = 2), 1 day
  weight percentage that remained in solution: 55.3 % w/w
[2]; H2O (pH = 2), 2 days
  weight percentage that remained in solution: 46.4 % w/w
[2]; H2O (pH = 2), 7 days
  weight percentage that remained in solution: 0.0 % w/w
[2]; H2O (pH = 2), 14 days
  weight percentage that remained in solution: 0.0 % w/w
[2]; H2O (pH = 7), 2 hours
  weight percentage that remained in solution: 100.0 % w/w
[2]; H2O (pH = 7), 4 hours
  weight percentage that remained in solution: 100.0 % w/w
[2]; H2O (pH = 7), 1 day
  weight percentage that remained in solution: 100.0 % w/w
[2]; H2O (pH = 7), 2 days
  weight percentage that remained in solution: 100.0 % w/w
[2]; H2O (pH = 7), 7 days
  weight percentage that remained in solution: 100.0 % w/w
[2]; H2O (pH = 7), 14 days
  weight percentage that remained in solution: 100.0 % w/w
[2]; H2O (pH = 10), 2 hours
  weight percentage that remained in solution: 100.0 % w/w
[2]; H2O (pH = 10), 4 hours
  weight percentage that remained in solution: 100.0 % w/w
[2]; H2O (pH = 10), 1 day
  weight percentage that remained in solution: 100.0 % w/w
[2]; H2O (pH = 10), 2 days
  weight percentage that remained in solution: 100.0 % w/w
[2]; H2O (pH = 10), 7 days
  weight percentage that remained in solution: 100.0 % w/w
[2]; H2O (pH = 10), 14 days
  weight percentage that remained in solution: 100.0 % w/w
[2]; H2O/Kleptose HPB (60/40), 2 hours
  weight percentage that remained in solution: 86.7 % w/w
[2]; H2O/Kleptose HPB (60/40), 4 hours
  weight percentage that remained in solution: 86.7 % w/w
[2]; H2O/Kleptose HPB (60/40), 1 day
  weight percentage that remained in solution: 86.7 % w/w
[2]; H2O/Kleptose HPB (60/40), 2 days
  weight percentage that remained in solution: 86.7 % w/w
[2]; H2O/Kleptose HPB (60/40), 7 days
  weight percentage that remained in solution: 86.7 % w/w
[2]; H2O/Kleptose HPB (60/40), 14 days
  weight percentage that remained in solution: 86.7 % w/w
[2]; PEG 400, 2 hours
  weight percentage that remained in solution: 100.0 % w/w
[2]; PEG 400, 4 hours
  weight percentage that remained in solution: 100.0 % w/w
[2]; PEG 400, 1 day
  weight percentage that remained in solution: 100.0 % w/w
[2]; PEG 400, 2 days
  weight percentage that remained in solution: 100.0 % w/w
[2]; PEG 400, 7 days
  weight percentage that remained in solution: 100.0 % w/w
[2]; PEG 400, 14 days
  weight percentage that remained in solution: 100.0 % w/w
[3]; H2O (pH = 2), 25° C.
  solubility: <1 µg/mL
[3]; H2O (pH = 7), 25° C.
  solubility: <1 µg/mL
[3]; H2O (pH = 10), 25° C.
  solubility: <1 µg/mL
[3]; H2O/Cremophor RH 40 (80/20), 25° C.
  solubility: <1 µg/mL
[3]; H2O/Kleptose HPB (60/40), 25° C.
  solubility: 600 µg/mL
[3]; H2O/Vitamin E TPGS (90/10), 25° C.
  solubility: 6200 µg/mL
[3]; H2O/polysorbate 80 (80/20), 25° C.
  solubility: >10000 µg/mL
[3]; Miglyol 812, 25° C.
  solubility: >10000 µg/mL
[3]; PEG 400, 25° C.
  solubility: >10000 µg/mL

— patent publication US20120010173A1 (SEPS PHARMA N.V., priority 2009, published 2012)
